Data reported in patent US9067881B2, “4-tolyl-ethynyl-octahydro-indole-1-ester derivatives” (NOVARTIS AG, priority 2011, dated 2015).
Converted amounts (≈) assume the structure as drawn.

Experiments:
[1] = In-vitro clearance in rat liver microsomes (metabolic stability, compound depletion)
[2] = In-vitro clearance in human liver microsomes (metabolic stability, compound depletion)
[3] = Solubility in Cl free phosphate buffer pH 6.8; type: physicochemical; settings: aqueous buffer; Cl free phosphate buffer (0.067 M) pH 6.8
[4] = molecular target: T1, human mGluR5 (Homo sapiens, UniProt P41594); experiment: In-vitro activity of mGluR5 antagonists (inhibition of agonist induced elevation of intracellular Ca2+ or inositol phosphate turnover at recombinant human mGluR5); type: cell-based; settings: recombinant human mGluR5, antagonism
T1 construct: expressed in transfected cells

[5] = microsomes
[6] = microsomes; remark: listed apart in the source

T1 sequence (P41594 21-1180 isoform P41594-2 limits assumed): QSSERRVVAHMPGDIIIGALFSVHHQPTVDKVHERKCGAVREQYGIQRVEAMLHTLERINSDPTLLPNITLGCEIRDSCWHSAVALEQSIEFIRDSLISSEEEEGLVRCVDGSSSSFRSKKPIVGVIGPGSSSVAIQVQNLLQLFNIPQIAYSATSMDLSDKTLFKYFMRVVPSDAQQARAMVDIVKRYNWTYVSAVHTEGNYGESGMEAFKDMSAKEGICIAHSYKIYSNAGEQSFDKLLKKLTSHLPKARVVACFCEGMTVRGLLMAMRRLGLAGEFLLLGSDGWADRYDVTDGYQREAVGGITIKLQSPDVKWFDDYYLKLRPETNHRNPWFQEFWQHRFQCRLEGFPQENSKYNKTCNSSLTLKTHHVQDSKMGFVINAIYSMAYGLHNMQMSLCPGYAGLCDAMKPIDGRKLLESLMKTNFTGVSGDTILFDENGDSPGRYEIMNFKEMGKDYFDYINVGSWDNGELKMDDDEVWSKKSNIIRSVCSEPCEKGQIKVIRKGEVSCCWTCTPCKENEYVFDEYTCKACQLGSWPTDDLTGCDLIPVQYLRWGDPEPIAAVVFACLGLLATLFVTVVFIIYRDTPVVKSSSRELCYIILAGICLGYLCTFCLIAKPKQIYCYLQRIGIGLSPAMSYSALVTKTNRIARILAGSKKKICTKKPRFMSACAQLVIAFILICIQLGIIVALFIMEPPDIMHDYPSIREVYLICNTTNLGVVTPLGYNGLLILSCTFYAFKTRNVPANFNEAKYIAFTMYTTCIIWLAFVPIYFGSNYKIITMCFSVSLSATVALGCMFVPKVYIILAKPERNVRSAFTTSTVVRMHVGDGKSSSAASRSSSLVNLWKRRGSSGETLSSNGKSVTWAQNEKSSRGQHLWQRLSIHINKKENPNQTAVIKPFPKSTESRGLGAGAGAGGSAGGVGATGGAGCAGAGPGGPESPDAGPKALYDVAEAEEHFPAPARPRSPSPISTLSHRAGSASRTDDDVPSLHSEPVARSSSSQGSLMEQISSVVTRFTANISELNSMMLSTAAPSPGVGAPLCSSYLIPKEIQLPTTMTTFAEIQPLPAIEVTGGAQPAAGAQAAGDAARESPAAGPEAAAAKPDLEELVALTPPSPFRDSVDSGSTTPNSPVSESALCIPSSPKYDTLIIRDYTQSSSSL

Compound	microsomal CLint at 1 μM [1] [µL/min/mg]	microsomal CLint at 1 μM [2] [µL/min/mg]	solubility [3] [µg/mL]	IC50 [4] [nM]	CL (human) [5] [µL/min/mg]	CL (rat) [6] [µL/min/mg]
COC(=O)N1CC[C@@H]2[C@H]1CCC[C@]2(C#Cc1cccc(C)c1)OC(=O)CN(C)C [Example 1, (3aR,4S,7aR)-4-(2-Dimethylamino-acetoxy)-4-m-tolylethynyl-octahydro-indole-1-carboxylic acid methyl ester]	195	14				
COC(=O)N1CC[C@@H]2[C@H]1CCC[C@@]2(O)C#Cc1cccc(C)c1 [Example 1.0, 4-hydroxy-4-m-tolylethynyl-octahydro-indole-1-carboxylic acid methyl ester, reference compound]	277	113	51 (≈ 163 µM)			
CCOC(=O)N1CC[C@@H]2[C@H]1CCC[C@@]2(O)C#Cc1cccc(C)c1 [Example 2.0]				42		
COC(=O)N1CC[C@@H]2[C@H]1CCC[C@]2(C#Cc1cccc(C)c1)OC(=O)CCCN(C)C [Example 3, (3aR,4S,7aR)-4-(4-Dimethylamino-butyryloxy)-4-m-tolylethynyl-octahydro-indole-1-carboxylic acid methyl ester]	730	283				
CNCC(=O)O[C@@]1(C#Cc2cccc(C)c2)CCC[C@@H]2[C@H]1CCN2C(=O)OC [Example 7, (3aR,4S,7aR)-4-(2-Methylamino-acetoxy)-4-m-tolylethynyl-octahydro-indole-1-carboxylic acid methyl ester]	346	433				
COC(=O)N1CC[C@@H]2[C@H]1CCC[C@]2(C#Cc1cccc(C)c1)OC(=O)CN [Example 8, (3aR,4S,7aR)-4-(2-Amino-acetoxy)-4-m-tolylethynyl-octahydro-indole-1-carboxylic acid methyl ester]	87	187	125 (≈ 337 µM)			
COC(=O)N1CC[C@@H]2[C@H]1CCC[C@]2(C#Cc1cccc(C)c1)OC(=O)[C@H](C)N [Example 9, (3aR,4S,7aR)-4-((S)-2-Amino-propionyloxy)-4-m-tolylethynyl-octahydro-indole-1-carboxylic acid methyl ester]	355	315				
CCCCCCCCCCCCCC(=O)O[C@@]1(C#Cc2cccc(C)c2)CCC[C@@H]2[C@H]1CCN2C(=O)OC [Example 16, (3aR,4S,7aR)-4-Tetradecanoyloxy-4-m-tolylethynyl-octahydro-indole-1-carboxylic acid methyl ester]	26	33	< 2			
COC(=O)N1CC[C@@H]2[C@H]1CCC[C@]2(C#Cc1cccc(C)c1)OC(=O)CN1CCOCC1 [Example 26, (3aR,4S,7aR)-4-(2-Morpholin-4-yl-acetoxy)-4-m-tolylethynyl-octahydro-indole-1-carboxylic acid methyl ester]	533	770	138 (≈ 313 µM)			
COC(=O)N1CC[C@@H]2[C@H]1CCC[C@]2(C#Cc1cccc(C)c1)OC(=O)CCN1CCOCC1 [Example 27, (3aR,4S,7aR)-4-(3-Morpholin-4-yl-propionyloxy)-4-m-tolylethynyl-octahydro-indole-1-carboxylic acid methyl ester]	533	94	108 (≈ 238 µM)			
COC(=O)N1CC[C@@H]2[C@H]1CCC[C@]2(C#Cc1cccc(C)c1)OC(=O)CCN1CCCC1 [Example 29, (3aR,4S,7aR)-4-(3-Pyrrolidin-1-yl-propionyloxy)-4-m-tolylethynyl-octahydro-indole-1-carboxylic acid methyl ester]	730	660	439 (≈ 1000 µM)			
COC(=O)N1CC[C@@H]2[C@H]1CCC[C@]2(C#Cc1cccc(C)c1)OC(=O)CCN [Example 40, (3aR,4S,7aR)-methyl 4-(3-aminopropanoyloxy)-4-(m-tolylethynyl)octahydro-1H-indole-1-carboxylate]	302	36				
COC(=O)N1CC[C@@H]2[C@H]1CCC[C@]2(C#Cc1cccc(C)c1)OC(=O)[C@@H](N)c1ccccc1 [Example 41, (3aR,4S,7aR)-methyl 4-((S)-2-amino-2-phenylacetoxy)-4-(m-tolylethynyl)octahydro-1H-indole-1-carboxylate]	579	693	3 (≈ 6.72 µM)			
(3aR,4S,7aR)-4-((S,R)-2-Amino-3-methyl-butyryloxy)-4-m-tolylethynyl-octahydro-indole-1-carboxylic acid methyl ester [Example 4]					630	478
